MIC data for 7 compounds are collected here from ChEMBL document CHEMBL3046611, “Anti-tubercular agents from Ammannia baccifera (Linn.)” (2013).

≈ marks a conversion by molar mass, not a printed value.

Test [1] relates to Mycobacterium tuberculosis. The experiment in a line: Antitubercular activity against Mycobacterium tuberculosis H37Rv ATCC 27294 assessed as growth inhibition after 24 hr by BACTEC-460 radiometric susceptibility assay. The test is classed as functional. Conditions: H37Rv ATCC 27294, 24 h.
For test [2], the system named is Mycobacterium tuberculosis. The experiment in a line: Antimycobacterial activity against Mycobacterium tuberculosis H37Rv ATCC 27294 assessed as growth inhibition by agar dilution method. The test is classed as functional.

As for `COc1cc(C(=O)O[C@H]2CCC(=O)c3ccccc32)cc(OC)c1OC` [4-O-(3,4,5-TRIMETHOXYBENZOYL)-ALPHA-TETRALONE], the MIC in test [1] turned out to be 100 mg/L (≈ 281 µM).
The same measure, in the same setting: as for `COc1cccc(C(=O)O[C@H]2CCC(=O)c3ccccc32)c1` [4-O-META-ANISOYL-ALPHA-TETRALONE], the figure is 100 mg/L (≈ 337 µM).
The same measure, in the same setting: as for `CCCCCCCCCCCCCC(=O)O[C@H]1CCC(=O)c2ccccc21` [4-O-MYRICITOYL-ALPHA-TETRALONE], the figure is 50 mg/L (≈ 134 µM).
For the compound `O=C1CC[C@H](O)c2ccccc21` [(-)-4-HYDROXY-ALPHA-TETRALONE], the results for the MIC in test [2] and in test [1] were 4 mg/L (≈ 24.7 µM) and 50 mg/L (≈ 308 µM), respectively.
Regarding `O=C1CC[C@H](O[C@@H]2O[C@H](CO)[C@@H](O)[C@H](O)[C@H]2O)c2ccccc21` [TETRALONE-4-O-BETA-D-GLUCOPYRANOSIDE], the MIC in test [1] stood at 100 mg/L (≈ 308 µM).
For the compound `O=C(O[C@H]1CCC(=O)c2ccccc21)c1ccccc1` [4-O-BENZOYL-ALPHA-TETRALONE], the MIC in test [1] was found to be 100 mg/L (≈ 376 µM).
As for `CCCCCCCCCCCCCCCC(=O)O[C@H]1CCC(=O)c2ccccc21` [4-O-PALMITOYL-ALPHATETRALONE], the minimum inhibitory concentration (MIC) in test [1] turned out to be 100 mg/L (≈ 250 µM).
